For 21 molecules, EC50 and Emax results are on record in US10077237B2 (Sanofi, priority 2013, dated 2018).

This test has as its target T1, recombinant human AMPK complex, containing α2β1γ2 (Homo sapiens, UniProt P54646+Q9Y478).
T1 construct: hsAMPKα2-552-His, hsAMPKβ1-2-270 and hsAMPKγ-2-569 respectively; hsAMPKβ1-2-270; hsAMPKγ-2-569; His (C); made in house; host or cells: Spodoptera frugiperda Sf21 (baculovirus)
In words: AMPK in vitro activation assay (HTRF). Particulars: for EC50: HTRF, recombinant human α2β1γ2 AMPK, 200 μM ATP, biotinylated ACC-CREBp peptide, repeat determinations on separate lines; for Emax: potentiation of AMPK activity as percent over the basal signal (without compound). Type of test: biochemical. Put shortly:
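HTRF phosphorylation read-out (Eu-cryptate anti-pS133-CREB, streptavidin-XL665) after a 45 min, 37° C kinase step. This step was initiated by a solution with 200 μM ATP and 2 or 0.08 μM biotinylated ACC-CREBp peptide. Beforehand, compound sat 30 min at room temperature with baculovirus/Sf21 α2β1γ2 in pH 7.0 HEPES buffer; EC50 derived from activation over basal.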
For orientation: Time-resolved FRET reads energy transfer from a long-lived donor to a nearby acceptor.

Counter-ions that a name gives are not always drawn.

T1 sequence (P54646 2-552): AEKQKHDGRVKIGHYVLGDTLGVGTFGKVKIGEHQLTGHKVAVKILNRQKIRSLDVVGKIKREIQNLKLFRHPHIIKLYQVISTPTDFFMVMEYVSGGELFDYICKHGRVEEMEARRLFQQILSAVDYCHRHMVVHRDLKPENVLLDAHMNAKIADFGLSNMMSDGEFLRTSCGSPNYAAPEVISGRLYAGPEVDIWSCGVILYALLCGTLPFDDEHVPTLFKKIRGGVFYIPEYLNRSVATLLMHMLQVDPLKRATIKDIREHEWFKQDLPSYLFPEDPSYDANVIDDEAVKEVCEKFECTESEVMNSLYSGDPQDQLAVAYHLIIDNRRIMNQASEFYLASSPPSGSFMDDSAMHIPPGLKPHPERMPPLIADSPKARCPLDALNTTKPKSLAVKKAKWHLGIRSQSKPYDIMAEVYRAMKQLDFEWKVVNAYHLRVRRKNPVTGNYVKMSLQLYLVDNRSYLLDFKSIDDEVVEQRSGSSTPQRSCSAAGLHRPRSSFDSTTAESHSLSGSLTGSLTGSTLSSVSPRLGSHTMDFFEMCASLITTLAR
T1 sequence (Q9Y478 2-270): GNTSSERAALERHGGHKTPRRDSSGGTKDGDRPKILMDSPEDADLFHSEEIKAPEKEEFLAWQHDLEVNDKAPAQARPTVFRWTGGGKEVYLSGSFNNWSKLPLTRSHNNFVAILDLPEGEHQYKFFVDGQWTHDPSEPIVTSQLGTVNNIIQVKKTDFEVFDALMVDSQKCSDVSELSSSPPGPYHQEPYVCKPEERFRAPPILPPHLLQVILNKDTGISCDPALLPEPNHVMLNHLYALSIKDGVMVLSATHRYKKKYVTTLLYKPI
T1 sequence (Q9UGJ0 2-569 partner limits assumed): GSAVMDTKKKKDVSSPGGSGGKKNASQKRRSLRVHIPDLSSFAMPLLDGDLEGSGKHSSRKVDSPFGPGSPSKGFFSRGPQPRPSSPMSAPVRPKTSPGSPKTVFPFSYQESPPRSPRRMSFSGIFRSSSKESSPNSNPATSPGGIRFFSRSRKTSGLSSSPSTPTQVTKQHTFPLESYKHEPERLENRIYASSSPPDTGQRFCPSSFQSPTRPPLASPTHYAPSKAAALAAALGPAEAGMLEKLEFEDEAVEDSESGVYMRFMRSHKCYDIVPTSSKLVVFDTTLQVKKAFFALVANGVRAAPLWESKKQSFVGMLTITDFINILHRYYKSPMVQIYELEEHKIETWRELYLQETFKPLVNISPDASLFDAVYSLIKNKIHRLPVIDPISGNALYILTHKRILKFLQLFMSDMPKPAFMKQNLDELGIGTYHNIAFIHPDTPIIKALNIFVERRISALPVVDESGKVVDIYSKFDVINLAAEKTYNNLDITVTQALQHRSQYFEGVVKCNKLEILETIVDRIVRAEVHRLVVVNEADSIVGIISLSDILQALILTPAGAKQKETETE

As usually defined, the EC50 is the concentration giving half of the maximal effect. In general, Emax refers to the size of the effect at its maximum, as opposed to the concentration needed. Consider `COc1ccc(C(O)=C2C(=O)Nc3cc(Cl)c(-c4ccc(N5CCOCC5)cc4)cc32)nc1` [Compound 140, 6-chloro-3-[hydroxy-(5-methoxy-2-pyridyl)methylene]-5-(4-morpholinophenyl)indolin-2-one], for which the EC50 was found to be 21 nM and the maximal response (Emax) was 227%.
As for `O=C1Nc2cc(Cl)c(-c3ccc(C4(CO)CC4)cc3)cc2C1=C(O)c1ccc(F)cc1F` [Compound 141, 6-chloro-3-[(2,4-difluorophenyl)hydroxy-methylene]-5-[4-[1-(hydroxymethyl)cyclopropyl]phenyl]indolin-2-one], the EC50 is 2 nM and the Emax was determined as 229%.
`O=C1Nc2cc(Cl)c(-c3ccc(C4(CO)CC4)cc3)cc2C1=C(O)c1cncc(F)c1` [Compound 142, 6-chloro-3-[(5-fluoro-3-pyridyl)hydroxy-methylene]-5-[4-[1-(hydroxymethyl)cyclopropyl]phenyl]indolin-2-one]: the concentration for a half-maximal effect (EC50) was 6 nM and the maximal effect (Emax) was determined as 239%.
`O=C1Nc2cc(Cl)c(-c3ccc(C4(CO)CC4)cc3)cc2C1=C(O)c1ccc(F)c(F)c1` [Compound 143, 6-chloro-3-[(3,4-difluorophenyl)hydroxy-methylene]-5-[4-[1-(hydroxymethyl)cyclopropyl]phenyl]indolin-2-one]: the EC50 was 3 nM and the Emax is 230%.
`O=C1Nc2cc(Cl)c(-c3ccc(C4(CO)CC4)cc3)cc2C1=C(O)c1cc(F)cc(F)c1` [Compound 144, 6-chloro-3-[(3,5-difluorophenyl)hydroxy-methylene]-5-[4-[1-(hydroxymethyl)cyclopropyl]phenyl]indolin-2-one]: the EC50 was determined as 0.9 nM and the maximal effect (Emax) amounted to 210%.
In the case of `COc1cc(C(O)=C2C(=O)Nc3cc(Cl)c(-c4cnc(N(C)C)nc4)cc32)on1` [Compound 145, 6-chloro-5-[2-(dimethylamino)pyrimidin-5-yl]-3-[hydroxy-(3-methoxyisoxazol-5-yl)methylene]indolin-2-one], the EC50 was 95 nM and the Emax was 257%.
As for `COc1cc(C(O)=C2C(=O)Nc3cc(Cl)c(-c4ccc(N(C)C)nc4)cc32)on1` [Compound 146, 6-chloro-5-[6-(dimethylamino)-3-pyridyl]-3-[hydroxy-(3-methoxyisoxazol-5-yl)methylene]indolin-2-one], the EC50 was determined as 88 nM and the maximum response (Emax) worked out at 278%.
The matching figures for `COc1cc(C(O)=C2C(=O)Nc3cc(Cl)c(-c4ccc(N(C)C)c(F)c4)cc32)on1` [Compound 147, 6-chloro-5-[4-(dimethylamino)-3-fluoro-phenyl]-3-[hydroxy-(3-methoxyisoxazol-5-yl)methylene]indolin-2-one]: 15 nM and 267%.
Consider `COc1cc(C(O)=C2C(=O)Nc3cc(Cl)c(-c4ccc(N(C)C)cc4F)cc32)on1` [Compound 148, 6-chloro-5-[4-(dimethylamino)-2-fluoro-phenyl]-3-[hydroxy-(3-methoxyisoxazol-5-yl)methylene]indolin-2-one], for which the EC50 is 1 nM and the maximal effect (Emax) came out at 158%.
Taken in the same sequence, the figures for `COc1cc(C(O)=C2C(=O)Nc3cc(Cl)c(-c4ccc(N5CCOCC5)c(F)c4)cc32)on1` [Compound 149, 6-chloro-5-(3-fluoro-4-morpholino-phenyl)-3-[hydroxy-(3-methoxyisoxazol-5-yl)methylene]indolin-2-one] were 6 nM and 170%.
Taken in the same sequence, the figures for `CN1CCC(c2ccc(-c3cc4c(cc3Cl)NC(=O)C4=C(O)c3cc(F)cc(F)c3)cc2)C1` (stereo not drawn) [Compound 150, 6-chloro-3-[(3,5-difluorophenyl)hydroxy-methylene]-5-[4-(1-methylpyrrolidin-3-yl)phenyl]indolin-2-one hydrochloride] were 14 nM and 137%.
`COc1ccc(C(O)=C2C(=O)Nc3cc(Cl)c(-c4ccc(N5CCOCC5)cc4)cc32)cn1` [Compound 151, 6-chloro-3-[hydroxy-(6-methoxy-3-pyridyl)methylene]-5-(4-morpholinophenyl)indolin-2-one]: the EC50 is 6 nM and the Emax is 161%.
On to `COc1cc(C(O)=C2C(=O)Nc3cc(Cl)c(-c4ccc(OC5CCC(O)CC5)cc4)cc32)on1` (stereo not drawn) [Compound 152, 6-chloro-5-[4-(4-hydroxycyclohexoxy)phenyl]-3-[hydroxy-(3-methoxyisoxazol-5-yl)methylene]indolin-2-one], for which the EC50 worked out at 9 nM and the Emax turned out to be 223%.
The matching figures for `COc1cc(C(O)=C2C(=O)Nc3cc(Cl)c(-c4ccc(N(C)C5CC5)cc4)cc32)on1` [Compound 153, 6-chloro-5-[4-[cyclopropyl(methyl)amino]phenyl]-3-[hydroxy-(3-methoxyisoxazol-5-yl)methylene]indolin-2-one]: 7 nM and 234%.
Turning to `COc1cc(C(O)=C2C(=O)Nc3cc(Cl)c(-c4ccc5c(ccn5C)c4)cc32)on1` [Compound 154, 6-chloro-3-[hydroxy-(3-methoxyisoxazol-5-yl)methylene]-5-(1-methylindol-5-yl)indolin-2-one], the EC50 is 0.7 nM and the maximum response (Emax) was determined as 256%.
In the case of `O=C1Nc2cc(Cl)c(-c3ccc(C4CC(O)C4)cc3)cc2C1=C(O)c1ccc(F)cc1F` (stereo not drawn) [Compound 155, 6-chloro-3-[(2,4-difluorophenyl)hydroxy-methylene]-5-[4-(3-hydroxycyclobutyl)phenyl]indolin-2-one], the half-maximal effective concentration (EC50) is 60 nM and the maximum response (Emax) is 131%.
For the molecule `COc1cc(C(O)=C2C(=O)Nc3cc(Cl)c(-c4ccc(N5CCC(O)C5)cc4)cc32)on1` (stereo not drawn) [Compound 156, 6-chloro-3-[hydroxy-(3-methoxyisoxazol-5-yl)methylene]-5-[4-(3-hydroxypyrrolidin-1-yl)phenyl]indolin-2-one], the EC50 was found to be 2 nM and the Emax worked out at 229%.
On to `O=C1Nc2cc(Cl)c(-c3ccc(C4(CO)CC4)cc3)cc2C1=C(O)c1cc2cccnc2o1` [Compound 157, 6-chloro-3-[furo[2,3-b]pyridin-2-yl(hydroxy)methylene]-5-[4-[1-(hydroxymethyl)cyclopropyl]phenyl]indolin-2-one], for which the concentration for a half-maximal effect (EC50) came out at 0.6 nM and the maximum response (Emax) was 141%.
In the case of `COc1cc(C(O)=C2C(=O)Nc3cc(Cl)c(-c4ccc(C5(CO)CC5)cc4)cc32)ccn1` [Compound 158, 6-chloro-3-[hydroxy-(2-methoxy-4-pyridyl)methylene]-5-[4-[1-(hydroxymethyl)cyclopropyl]phenyl]indolin-2-one], the concentration for a half-maximal effect (EC50) was 0.5 nM and the Emax was 130%.
As for `COc1cc(F)c(C(O)=C2C(=O)Nc3cc(Cl)c(-c4ccc(C5CC(O)C5)cc4)cc32)cc1F` (stereo not drawn) [Compound 159, 6-chloro-3-[(2,5-difluoro-4-methoxy-phenyl)hydroxy-methylene]-5-[4-(3-hydroxycyclobutyl)phenyl]indolin-2-one], the EC50 was 10 nM and the maximal response (Emax) is 180%.
As for `O=C1Nc2cc(Cl)c(-c3ccc(C4(CO)CC4)cc3)cc2C1=C(O)c1ccncc1F` [Compound 160, 6-chloro-3-[(3-fluoro-4-pyridyl)hydroxy-methylene]-5-[4-[1-(hydroxymethyl)cyclopropyl]phenyl]indolin-2-one], the half-maximal effective concentration (EC50) was 0.1 nM and the Emax came to 191%.
